What all share (assay type): biochemical
The target of one assay is T1, Pfu DNA polymerase (Pyrococcus furiosus, UniProt P61875).
T1 construct: purchased Stratagene Ltd
T1 sequence (P61875 1-775): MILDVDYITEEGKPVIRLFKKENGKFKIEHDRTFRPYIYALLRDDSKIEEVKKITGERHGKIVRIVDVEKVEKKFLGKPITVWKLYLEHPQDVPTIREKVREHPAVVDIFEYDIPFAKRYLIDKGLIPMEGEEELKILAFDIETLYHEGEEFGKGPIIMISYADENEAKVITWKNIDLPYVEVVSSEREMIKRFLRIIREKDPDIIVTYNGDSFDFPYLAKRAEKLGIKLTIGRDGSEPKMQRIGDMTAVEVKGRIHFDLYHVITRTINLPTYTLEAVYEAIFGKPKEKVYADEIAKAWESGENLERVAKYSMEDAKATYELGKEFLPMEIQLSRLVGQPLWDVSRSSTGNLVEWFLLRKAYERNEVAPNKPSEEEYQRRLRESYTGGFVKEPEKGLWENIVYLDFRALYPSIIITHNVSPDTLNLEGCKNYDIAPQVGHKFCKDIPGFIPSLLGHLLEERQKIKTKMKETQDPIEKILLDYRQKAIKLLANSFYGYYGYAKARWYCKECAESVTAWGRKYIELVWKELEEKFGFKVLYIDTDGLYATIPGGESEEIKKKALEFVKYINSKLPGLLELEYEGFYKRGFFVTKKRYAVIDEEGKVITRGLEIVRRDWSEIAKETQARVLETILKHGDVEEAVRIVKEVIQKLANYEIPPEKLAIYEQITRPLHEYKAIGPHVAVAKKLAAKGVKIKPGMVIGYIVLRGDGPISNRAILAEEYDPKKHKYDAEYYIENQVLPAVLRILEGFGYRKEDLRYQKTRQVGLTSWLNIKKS
Kind of assay: Thermostable DNA polymerase primer extension, Pfu. More on the design: key: −: No extension within assay time; +/−: up to 25% of primer extended by at least one base within assay time; +: up to 50% of primer extended by at least one base within assay time; ++: up to 75% of primer extended by at least one base within assay time; +++: essentially all primer extended by at least one base within assay time. Particulars: DNA template, TTP replaced entirely by test compound, 45° C. for 20–40 minutes. As to the method:
(§1) DNA polymerase assays were performed using Sequence 1 as primer and Sequence 2 as template. • Sequence 1 5′[Cy3]TAACTCATTAACAGGATC 3′ • Sequence 2 5′AT TCGCGGTATTCTGGTATGAAGCTTTTAGATCCTGTTAATGAGTTA GTA3′
(§2) The template (Sequence 2) was designed such that the base (underlined) immediately adjacent to the 3′ end of the hybridised primer is complementary to the nucleotide test compound. Nucleotide test compounds were compounds (6) (4′-C-(glycylaminomethyl)thymidine triphosphate), (8) (4′-C-(N-trifluoroacetyaminomethyl)thymidine triphosphate) and (9) (4′-C-(aminomethyl)thymidine triphosphate) as described above.
(§3) Primer extension reactions were performed using the above primers in the presence of 40 to 80 μM of nucleotide triphosphates. Positive control reactions contained all four native nucleotide triphosphates. For the other reactions the TTP was replaced with either a 2:1 ratio of […] for the terminator control, or entirely by the test compound The enzymes were used at a final concentration of 0.175 units/μl and a magnesium ion concentration of 2.5 mM in buffers supplied by the manufacturer. The primer and template concentrations were 0.5 pmol/μl and 2 pmol/μl respectively.
(§4) Extension reactions with thermophilic enzymes were performed by initially denaturing the fully assembled reactions at 70° C. for 5 min. followed by 45° C. for 20–40 minutes. The following enzymes were used: Taq DNA polymerase (Taq); Thermosequenase (TS); Thermosequenase II (TSII); Thermosequenase E (TSE), Tfl DNA polymerase (Tfl); Tth DNA polymerase (Tth), deltaTts DNA polymerase (deltaTts), deltaTts D DNA polymerase (dettaTTSD) (all from APBiotech); Pfu DNA polymerase (Pfu) (Stratagene Ltd); Vent™ DNA polymerase (Vent) (New England Biolabs).
The reactions were stopped by adding a 0.5 volume aliquot of 80% formamide containing 0.1% (w/v) bromophenol blue and 0.1% (w/v) cresol blue. […]
Gels were scanned for Cy3 fluorescence on a Molecular Dynamics Fluorimager and the data analysed using Molecular Dynamics ImageQuant 5 software. […]

The target in a further assay is T2, Sequenase 2™ (Escherichia phage T7, UniProt P00581, DEL118-145).
T2 construct: purchased AP Biotech
Kind of assay: Mesophilic DNA polymerase primer extension, Seq. More on the design: key to result of incorporation (termination / further chain extension): T: Incorporation results in termination; E: Incorporation permits further chain extension; T/E: Predominant product is primer extended by one base, but evidence of some further extension also observed. To be noted: DNA template, 37° C. for 20–40 minutes; for primer extended by at least one base within assay time (grade): TTP replaced entirely by test compound. How it is done:
DNA polymerase assays were performed using Sequence 1 as primer and Sequence 2 as template. • Sequence 1 5′[Cy3][…] 3′ • Sequence 2 5′AT […]3′
as §2, §3
Extension reactions preformed with mesophilic polymerases were carried out by mixing all the components of the reaction except the enzyme and heating to 70° C. for 5 min. After the reactions had cooled to room temperature 0.175 units of the enzyme were added and the reactions heated to 37° C. for 20–40 minutes. The following enzymes were used: T7 DNA polymerase (T7); Sequenase 2™ (Seq); Klenow fragment of DNA polymerase 1 (Klen); phi-29 DNA polymerase (Phi-29); T4 DNA polymerase (T4) (all from AP Biotech) and Bst DNA polymerase (Bst) (Cambio Ltd).
(§5) The reactions were stopped by adding a 0.5 volume aliquot of 80% formamide containing 0.1% (w/v) bromophenol blue and 0.1% (w/v) cresol blue. The reaction products were separated by denaturing gel electrophoresis at a constant power of 45 W on 16% polyacrylamide gels containing 50% urea.
(§6) Gels were scanned for Cy3 fluorescence on a Molecular Dynamics Fluorimager and the data analysed using Molecular Dynamics ImageQuant 5 software.
(§7) The incorporation of a test nucleotide triphosphate results in the appearance on a polyacrylamide gel of a single band corresponding to a single base extension product. If, however, the enzyme adds additional bases then further bands would be observed that corresponded to either the full-length product or positions of other complementary bases in the template.

The subject of a further assay is delta Tts DNA polymerase. Kind of assay: Thermostable polymerase under reverse transcription conditions, delta Tts. To be noted: RNA template, 2.5 mM Manganese ions; for primer extended by at least one base within assay time (grade): Tth reaction buffer. Also noted: key to result of incorporation (termination / further chain extension): T: Incorporation results in termination; E: Incorporation permits further chain extension; T/E: Predominant product is primer extended by one base, but evidence of some further extension also observed; key to primer extended by at least one base within assay time (grade): −: No extension within assay time; +/−: up to 25% of primer extended by at least one base within assay time; +: up to 50% of primer extended by at least one base within assay time; ++: up to 75% of primer extended by at least one base within assay time; +++: essentially all primer extended by at least one base within assay time. How it is done:
as §1, §2, §3, §4
Reverse transcriptase reactions were performed essentially as described above for thermophilic and mesophilic enzymes. The template for these reactions was the RNA equivalent of sequence 2. All the thermophilic enzymes were assayed in Tth reaction buffer (Cambio Ltd, Cambridge UK) containing 2.5 mM Manganese ions. The following enzymes were used: Thermosequenase (TS1); Thermosequenase II (TSII); delta Tts DNA polymerase (deltaTts); delta Tts D DNA polymerase (deltaTtsD) (all from APBiotech); Retrotherm reverse transcriptase (Retroth) (Cambio Ltd); Tth DNA polymerase (Tth) (Cambio Ltd.).
as §5, §6, §7

T2 sequence (P0AA25 2-109, stated change not applied): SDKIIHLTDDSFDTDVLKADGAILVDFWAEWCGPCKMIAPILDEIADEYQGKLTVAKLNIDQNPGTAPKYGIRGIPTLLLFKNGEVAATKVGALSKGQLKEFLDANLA
T2 sequence (P00581 other isoform, or with tags, fused parts or gaps DEL118-145): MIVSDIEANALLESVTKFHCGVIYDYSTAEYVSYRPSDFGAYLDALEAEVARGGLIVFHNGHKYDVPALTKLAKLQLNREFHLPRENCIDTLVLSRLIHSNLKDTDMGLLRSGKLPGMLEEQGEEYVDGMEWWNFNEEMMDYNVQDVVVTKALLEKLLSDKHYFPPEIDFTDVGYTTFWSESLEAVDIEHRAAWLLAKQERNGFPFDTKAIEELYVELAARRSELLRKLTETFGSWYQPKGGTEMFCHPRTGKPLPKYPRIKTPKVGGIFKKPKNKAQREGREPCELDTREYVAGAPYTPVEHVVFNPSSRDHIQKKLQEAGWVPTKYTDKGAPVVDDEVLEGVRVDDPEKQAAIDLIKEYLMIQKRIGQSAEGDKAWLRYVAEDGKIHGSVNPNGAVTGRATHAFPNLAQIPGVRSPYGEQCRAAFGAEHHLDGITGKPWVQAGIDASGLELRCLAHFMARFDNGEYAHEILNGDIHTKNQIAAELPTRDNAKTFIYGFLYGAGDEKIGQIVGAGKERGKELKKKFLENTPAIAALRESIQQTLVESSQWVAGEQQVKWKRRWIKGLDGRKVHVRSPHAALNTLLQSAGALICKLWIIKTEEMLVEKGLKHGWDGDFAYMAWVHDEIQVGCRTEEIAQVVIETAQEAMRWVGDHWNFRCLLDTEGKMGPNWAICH

“4′-C-(Aminomethyl)thymidine triphosphate [compound (9)]”: the “primer extended by at least one base within assay time (grade)” value (from here on “primer extended”) is on record as “−” on Pfu DNA polymerase, “+ (up to 50% of primer extended by at least one base within assay time)” on Sequenase 2™ and “+++” with delta Tts DNA polymerase. Further, the “result of incorporation (termination / further chain extension)” value on Sequenase 2™ and with delta Tts DNA polymerase was “T” each time.

Consider “4′-C-(Glycylaminomethyl)thymidine triphosphate [compound (6)]”, for which the entries for the “primer extended” value on Pfu DNA polymerase, at Sequenase 2™ and in the assay with delta Tts DNA polymerase were “−”, “+ (up to 50% of primer extended by at least one base within assay time)” and “+++”, respectively. In addition, the “result of incorporation (termination / further chain extension)” value on Sequenase 2™ and in the assay with delta Tts DNA polymerase was “T” throughout.

Turning to `Cc1cn([C@H]2C[C@H](O)[C@@](CNC(=O)C(F)(F)F)(COP(=O)(O)OP(=O)(O)OP(=O)(O)O)O2)c(=O)[nH]c1=O` [compound (8), 4′-C-(N-trifluoroacetylaminomethyl)thymidine triphosphate], the “primer extended” value at Pfu DNA polymerase is given as “−”; at Sequenase 2™ it was “+ (up to 50% of primer extended by at least one base within assay time)”; with delta Tts DNA polymerase, “+++”. In addition, the “result of incorporation (termination / further chain extension)” value on Sequenase 2™ and in the assay on delta Tts DNA polymerase was “T” in each case.
